# Assay results from PubChem BioAssay AID2060912 (Molecular Pharmacology Branch, DTP, NCI, 2025).
# System: HUVEC/MSC spheroids viability
# Test: Human HUVEC/MSC cell line growth inhibition [KRAS2];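 on viability, T/C: percent of DMSO vehicle control luminescence so 100% = untreated viability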
# Conditions: for IC50: curve of first compound; for viability, T/C: stronger effect = lower value
# In short: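 Growth/viability of tumour-free HUVEC–hMSC spheroids was measured after exposure to targeted small molecules and KRAS inhibitors, singly or in combination. Agents were diluted in half-log steps from Cmax-based top concentrations, capped at 10 microM without known Cmax.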
# [1] = second compound 0.0316 µM, first compound 0.0316 µM
# [2] = second compound 0.0316 µM, first compound 0.1 µM
# [3] = second compound 0.1 µM, first compound 0.0316 µM
# [4] = second compound 0.1 µM, first compound 0.1 µM
# [5] = second compound 0.316 µM, first compound 0.0316 µM
# [6] = second compound 0.316 µM, first compound 0.1 µM
# [7] = second compound 1 µM, first compound 0.0316 µM
# [8] = second compound 1 µM, first compound 0.1 µM
# [9] = second compound 3.16 µM, first compound 0.0316 µM
# [10] = second compound 3.16 µM, first compound 0.1 µM
# [11] = second compound 10 µM, first compound 0.0316 µM
# [12] = second compound 10 µM, first compound 0.1 µM
# [13] = second compound 0.0316 µM, first compound 0.316 µM
# [14] = second compound 0.0316 µM, first compound 1 µM
# [15] = second compound 0.0316 µM, first compound 3.16 µM
# [16] = second compound 0.0316 µM, first compound 10 µM
# [17] = second compound 0.1 µM, first compound 0.316 µM
# [18] = second compound 0.1 µM, first compound 1 µM
# [19] = second compound 0.1 µM, first compound 3.16 µM
# [20] = second compound 0.1 µM, first compound 10 µM
# [21] = second compound 0.316 µM, first compound 0.316 µM
# [22] = second compound 0.316 µM, first compound 1 µM
# [23] = second compound 0.316 µM, first compound 3.16 µM
# [24] = second compound 0.316 µM, first compound 10 µM
# [25] = second compound 1 µM, first compound 0.316 µM
# [26] = second compound 1 µM, first compound 1 µM
# [27] = second compound 1 µM, first compound 3.16 µM
# [28] = second compound 1 µM, first compound 10 µM
# [29] = second compound 3.16 µM, first compound 0.316 µM
# [30] = second compound 3.16 µM, first compound 1 µM
# [31] = second compound 3.16 µM, first compound 3.16 µM
# [32] = second compound 3.16 µM, first compound 10 µM
# [33] = second compound 10 µM, first compound 0.316 µM
# [34] = second compound 10 µM, first compound 1 µM
# [35] = second compound 10 µM, first compound 3.16 µM
# [36] = second compound 10 µM, first compound 10 µM
structure (smiles),measurement,setting,value
CN(C)C/C=C/C(=O)Nc1cc2c(Nc3ccc(F)c(Cl)c3)ncnc2cc1O[C@H]1CCOC1 + CNCc1ccccc1-c1csc(C(C)Nc2nc(C)nc3cc(OC)c(OC)cc23)c1,IC50,second compound 0.0316 µM,> 0.1 µM
same,IC50,second compound 0.1 µM,> 0.1 µM
same,IC50,second compound 0.316 µM,> 0.1 µM
same,IC50,second compound 1 µM,> 0.1 µM
same,IC50,second compound 3.16 µM,> 0.1 µM
same,IC50,second compound 10 µM,< 0.000316 µM
same,"viability, T/C","second compound 0.0316 µM, first compound 0.000316 µM",100%
same,"viability, T/C","second compound 0.0316 µM, first compound 0.001 µM",89.5%
same,"viability, T/C","second compound 0.0316 µM, first compound 0.00316 µM",90.5%
same,"viability, T/C","second compound 0.0316 µM, first compound 0.01 µM",91.2%
same,"viability, T/C",[1],74%
same,"viability, T/C",[2],86%
same,"viability, T/C","second compound 0.1 µM, first compound 0.000316 µM",89.7%
same,"viability, T/C","second compound 0.1 µM, first compound 0.001 µM",105%
same,"viability, T/C","second compound 0.1 µM, first compound 0.00316 µM",77.4%
same,"viability, T/C","second compound 0.1 µM, first compound 0.01 µM",76.7%
same,"viability, T/C",[3],89.5%
same,"viability, T/C",[4],74.8%
same,"viability, T/C","second compound 0.316 µM, first compound 0.000316 µM",85.2%
same,"viability, T/C","second compound 0.316 µM, first compound 0.001 µM",93.2%
same,"viability, T/C","second compound 0.316 µM, first compound 0.00316 µM",72.5%
same,"viability, T/C","second compound 0.316 µM, first compound 0.01 µM",78.1%
same,"viability, T/C",[5],96.6%
same,"viability, T/C",[6],68.8%
same,"viability, T/C","second compound 1 µM, first compound 0.000316 µM",78.3%
same,"viability, T/C","second compound 1 µM, first compound 0.001 µM",73.7%
same,"viability, T/C","second compound 1 µM, first compound 0.00316 µM",86.5%
same,"viability, T/C","second compound 1 µM, first compound 0.01 µM",73.5%
same,"viability, T/C",[7],72.7%
same,"viability, T/C",[8],59.8%
same,"viability, T/C","second compound 3.16 µM, first compound 0.000316 µM",89.2%
same,"viability, T/C","second compound 3.16 µM, first compound 0.001 µM",94.4%
same,"viability, T/C","second compound 3.16 µM, first compound 0.00316 µM",80.4%
same,"viability, T/C","second compound 3.16 µM, first compound 0.01 µM",89.5%
same,"viability, T/C",[9],65.2%
same,"viability, T/C",[10],84.4%
same,"viability, T/C","second compound 10 µM, first compound 0.000316 µM",0.33%
same,"viability, T/C","second compound 10 µM, first compound 0.001 µM",0.35%
same,"viability, T/C","second compound 10 µM, first compound 0.00316 µM",0.37%
same,"viability, T/C","second compound 10 µM, first compound 0.01 µM",0.33%
same,"viability, T/C",[11],0.37%
same,"viability, T/C",[12],0.65%
COC(=O)c1ccc2c(C(=Nc3ccc(N(C)C(=O)CN4CCN(C)CC4)cc3)c3ccccc3)c(O)[nH]c2c1 + CNCc1ccccc1-c1csc(C(C)Nc2nc(C)nc3cc(OC)c(OC)cc23)c1,IC50,second compound 0.0316 µM,1.55 µM
same,IC50,second compound 0.1 µM,1.47 µM
same,IC50,second compound 0.316 µM,1.42 µM
same,IC50,second compound 1 µM,1.19 µM
same,IC50,second compound 3.16 µM,0.988 µM
same,IC50,second compound 10 µM,< 0.0316 µM
same,"viability, T/C",[1],77%
same,"viability, T/C",[2],117%
same,"viability, T/C",[13],76.5%
same,"viability, T/C",[14],53.4%
same,"viability, T/C",[15],37.9%
same,"viability, T/C",[16],0.32%
same,"viability, T/C",[3],76.7%
same,"viability, T/C",[4],103%
same,"viability, T/C",[17],87.3%
same,"viability, T/C",[18],48.4%
same,"viability, T/C",[19],36.9%
same,"viability, T/C",[20],0.41%
same,"viability, T/C",[5],74.6%
same,"viability, T/C",[6],125%
same,"viability, T/C",[21],90.9%
same,"viability, T/C",[22],53.1%
same,"viability, T/C",[23],31.9%
same,"viability, T/C",[24],0.39%
same,"viability, T/C",[7],72.9%
same,"viability, T/C",[8],85.9%
same,"viability, T/C",[25],72.3%
same,"viability, T/C",[26],57.5%
same,"viability, T/C",[27],10.4%
same,"viability, T/C",[28],0.24%
same,"viability, T/C",[9],103%
same,"viability, T/C",[10],95.8%
same,"viability, T/C",[29],84%
same,"viability, T/C",[30],53.1%
same,"viability, T/C",[31],0.34%
same,"viability, T/C",[32],0.27%
same,"viability, T/C",[11],0.37%
same,"viability, T/C",[12],0.4%
same,"viability, T/C",[33],0.49%
same,"viability, T/C",[34],0.51%
same,"viability, T/C",[35],0.34%
same,"viability, T/C",[36],0.2%
O=C(c1cc(Cc2n[nH]c(=O)c3ccccc23)ccc1F)N1CCN(C(=O)C2CC2)CC1 + CNCc1ccccc1-c1csc(C(C)Nc2nc(C)nc3cc(OC)c(OC)cc23)c1,IC50,second compound 0.0316 µM,> 10 µM
same,IC50,second compound 0.1 µM,> 10 µM
same,IC50,second compound 0.316 µM,> 10 µM
same,IC50,second compound 1 µM,> 10 µM
same,IC50,second compound 3.16 µM,> 10 µM
same,IC50,second compound 10 µM,< 0.0316 µM
same,"viability, T/C",[1],95.6%
same,"viability, T/C",[2],92.6%
same,"viability, T/C",[13],93.1%
same,"viability, T/C",[14],84.2%
same,"viability, T/C",[15],80.3%
same,"viability, T/C",[16],72%
same,"viability, T/C",[3],87.1%
same,"viability, T/C",[4],91.4%
same,"viability, T/C",[17],92.1%
same,"viability, T/C",[18],78.2%
same,"viability, T/C",[19],81.9%
same,"viability, T/C",[20],96%
same,"viability, T/C",[5],84.6%
same,"viability, T/C",[6],92.2%
same,"viability, T/C",[21],76.7%
same,"viability, T/C",[22],92.3%
same,"viability, T/C",[23],89.8%
same,"viability, T/C",[24],93.9%
same,"viability, T/C",[7],70%
same,"viability, T/C",[8],84.7%
same,"viability, T/C",[25],85.5%
same,"viability, T/C",[26],81.1%
same,"viability, T/C",[27],78%
same,"viability, T/C",[28],104%
same,"viability, T/C",[9],95.7%
same,"viability, T/C",[10],87.8%
same,"viability, T/C",[29],98.2%
same,"viability, T/C",[30],105%
same,"viability, T/C",[31],92.3%
same,"viability, T/C",[32],95.8%
same,"viability, T/C",[11],0.39%
same,"viability, T/C",[12],0.43%
same,"viability, T/C",[33],0.37%
same,"viability, T/C",[34],0.34%
same,"viability, T/C",[35],0.39%
same,"viability, T/C",[36],0.41%
